The text below walks through data of patent US20020013306A1, “TERPYRIDINE-PLATINUM(II) COMPLEXES” (priority 1996, published 2002).

Bounds are passed on as bounds.

In series [1] the test system is CH1 human ovarian carcinoma cell line. As to the kind of experiment: 96 h growth inhibition, sulforhodamine B assay, CH1. Format: cell-based. The note with it: 96 h exposure, v = variable (mean). (In general: In SRB staining, fixed cells bind dye roughly in proportion to their protein.)
Series [2] deals with CH1cis^R human ovarian carcinoma cell line (cisplatin resistant). As to the kind of experiment: 96 h growth inhibition, sulforhodamine B assay, CH1cisR. Format: cell-based. Conditions: for IC50: 96 h exposure, growth inhibition, v = variable (mean).
The subject of series [3] is CH1dox^R human ovarian carcinoma cell line (doxorubicin resistant). As to the kind of experiment: 96 h growth inhibition, sulforhodamine B assay, CH1doxR. Type of series: cell-based. Conditions: for IC50: 96 h exposure, growth inhibition.
Series [4] deals with A2780 human ovarian carcinoma cell line. As to the kind of experiment: 96 h growth inhibition, sulforhodamine B assay, A2780. Format: cell-based. Conditions: 96 h exposure, v = variable (mean).
Series [5] deals with A2780cis^R human ovarian carcinoma cell line (cisplatin resistant). As to the kind of experiment: 96 h growth inhibition, sulforhodamine B assay, A2780cisR. Conditions: 96 h exposure; growth inhibition; v = variable (mean). Type of series: cell-based.
The subject of series [6] is SKOV3 human ovarian carcinoma cell line. As to the kind of experiment: 96 h growth inhibition, sulforhodamine B assay, SKOV3. Conditions: 96 h exposure, v = variable (mean). Type of series: cell-based.
The next series deals with T. cruzi (MHOM/BR/00/Y). As to the kind of experiment: Trypanosoma cruzi in mouse peritoneal macrophages. Format: cell-based. The protocol:
Trypanosoma cruzi: […] Drug activity was determined from the % of infected macrophages in treated cultures. Nifurtimox was used as the positive control.

The subject of series [7] is T. brucei (S427) bloodstream trypomastigotes. As to the kind of experiment: Trypanosoma brucei bloodstream trypomastigote culture. Type of series: cell-based.
The conditions of series [8]: deuterated water; NMR immediately, 1, 2, 17 hours, one and two weeks.
Description: A solution of (4-picoline) (4′-aziridinoterpyridine) platinum (II) tetrafluoroborate in deuterated water was prepared. NMR spectra were recorded immediately, after 1, 2 and 17 hours, then after one and two weeks.
Series [9] is described as follows: Acid/base stability by NMR. The note with it: diethylamine in deuterated chloroform; directly afterwards and after 20 hours.
Description: Diethylamine (2 ml) was added to a solution of 4′-aziridinoterpyridine (5 mg) in deuterated chloroform in a NMR tube.
NMR spectra were recorded immediately and after 1, 2, 4 and 24 hours.
In a further series the test system is polyfd(A-T)2). As to the kind of experiment: Circular dichroism equilibrium binding. The source says:
(§1) The double positive charge on 4-picoline-2,2′:6′,2″-terpyridine-platinum(II), together with the intercalative binding mode is probably responsible for the large binding constant.
(Circular dichroism is the unequal absorption of left and right circularly polarised light.)

Series [10] has as its system DNA. As to the kind of experiment: Ligation assay (DNA unwinding). Type of series: binding.
Description: as §1

Series [11] concerns DNA. As to the kind of experiment: Fluorescence spectroscopy, ethidium bromide displacement. Type of series: binding.
Description: as §1

In series [12] the test system is CHl human ovarian carcinoma subcutaneously implanted xenograph. As to the kind of experiment: CH1 human ovarian carcinoma xenograft in vivo. As to the method: In view of the in vitro results, compound (A) was investigated in vivo using the CHl human ovarian carcinoma subcutaneously implanted xenograph. The compound was administered intraperitoneally at weekly intervals for 4 weeks. Two dose levels were used; 30 and 60 mg/kg. Tumours were approximately 6-8 mm maximum diameter at the beginning of treatment. […] Two endpoints were determined, the 28 day T/C (the ratio of Treated versus Control volumes at day 28 post initial treatment) and the growth delay (GD: the difference in time taken for Treated versus Control groups to double in volume).
At the lower dose there was a growth delay (GD) 83.1. […] It seems likely that by using a still lower and more frequent drug schedule (e.g. daily) greater control over tumour growth could be achieved.
For orientation: In xenograft studies the graft and the host belong to different species.

Series [13] can be described thus: Single intraperitoneal injection toxicity in tumour-bearing mice (ADJ/PC6). Format: in vivo.
Description: Compound (A) was also administered as a single intraperitoneal injection in water to mice bearing subcutaneously implanted tumours e.g. ADJ/PC6 (according to the standard protocol for evaluating platinum complexes).

A word on the IC50: it is the concentration needed to halve the response being measured. Regarding `Cc1ccncc1.F[B-](F)(F)F.F[B-](F)(F)F.[Pt+2].c1ccc(-c2cc(N3CC3)cc(-c3ccccn3)n2)nc1` [T, (4-Picoline)(4′-Aziridino-2,2′:6′,2″-Terpyridine) Platinum (II) Tetra-fluoroborate], the IC50 turned out to be 4.6 µM in [1]; 3.7 µM in series [2]; 4.2 µM in series [3]; 7.7 µM in series [4]; 20 µM in series [5]; 19 µM in series [6]. Moreover, the “% Inhibition, Trypanosoma cruzi” value in the series on T. cruzi (MHOM/BR/00/Y) (1 μM), in the series on T. cruzi (MHOM/BR/00/Y) (3 μM), in the series on T. cruzi (MHOM/BR/00/Y) (10 μM) and with T. cruzi (MHOM/BR/00/Y) (30 μM) was 0% in each case. For the same molecule, the “% Inhibition, Trypanosoma brucei” value in series [7] (0.1 μM) was determined as 54.2%; in series [7] (0.3 μM), 78.9%; in series [7] (1 μM), 100%; in series [7] (3 μM) it was 100%; in series [7] (10 μM), 100%; in series [7] (30 μM) it was 100%. In addition, the “stability in aqueous solution” value in series [8] is “stable to nucleophilic attack by water under neutral conditions”.

In the case of `c1ccc(-c2cc(N3CC3)cc(-c3ccccn3)n2)nc1` [4′-aziridinoterpyridine, 4′-Aziridino-2,2′:6′,2″-Terpyridine], the stability to base entry in [9] was “No change in the NMR spectrum”.

With `Cc1ccncc1.F[B-](F)(F)F.F[B-](F)(F)F.[Pt+2].c1ccc(-c2cccc(-c3ccccn3)n2)nc1` [A, 4-picoline-2,2′:6′:2″-terpyridine-platinum(II) tetrafluoroborate], the IC50 was 14 µM in [1]; 11 µM in series [2]; 4.4 µM in series [3]; 17 µM in [4]; over 100 µM in series [5]; 20 µM in series [6]. Moreover, the “RF resistance factor: IC50 resistant line/IC50 parent line” value is 0.8 in series [2] (CH1cis^R / CH1) and 0.3 in [3] (CH1dox^R / CH1). Also, the “% Inhibition, Trypanosoma cruzi” value in the series on T. cruzi (MHOM/BR/00/Y) (30 μM) was determined as 100%. The “% Inhibition, Trypanosoma brucei” value turned out to be 83.3% in [7] (0.03 μM); 100% in series [7] (0.1 μM); 100% in series [7] (0.3 μM); 100% in series [7] (1 μM); 100% in [7] (3 μM); 100% in series [7] (10 μM). In addition, the “% Inhibition, Trypanosoma brucei” value in series [7] (30 μM) worked out at 100%. Further, the “equilibrium binding constant, second binding mode” value in the series with polyfd(A-T)2) (site size of about 2 base pairs) was “about 1×10^6 M^−1”. Further, in the series with polyfd(A-T)2) (site size of about 4 base pairs), the “equilibrium binding constant, most stable binding mode” value is reported as “approximately 2×10^7 M^−1”. For the same molecule, the “DNA unwinding / intercalation in ligation assay” value in the series with DNA [10] is “unwind and so intercalate into DNA”. Moreover, the “displacement of ethidium bromide bound to DNA” value in the series on DNA [11] is recorded as “displaces ethidium bromide bound to DNA”. Besides, the “growth delay (GD)” value in [12] (30 mg/kg (lower dose) intraperitoneally, weekly for 4 weeks) stood at 83.1. In addition, the “local peritoneal organ damage” value in series [12] (60 mg/kg (higher dose) i.p. weekly for 4 weeks) is reported as “evidence, of local peritoneal organ damage”. Also, the “deaths due to drug toxicity” value in series [12] (30 and 60 mg/kg i.p. weekly for 4 weeks) is “no deaths due to drug toxicity”. For the same molecule, the “effect on tumour growth (Relative Tumour Volume)” value in [12] (30 and 60 mg/kg i.p. weekly for 4 weeks, especially at the lower dose) is given as “induces a growth inhibitory effect”. The results for the “toxicity, single intraperitoneal injection” value in series [13] (50 mg/kg in water) and in series [13] (100 mg/kg in water) were “no toxic affect” and “toxic”, respectively. Further, in series [13] (single intraperitoneal injection), the LD50 result is recorded as “approximately 70 mg/kg”.
